Reference: patent US20160158317A1, “Antimicrobial Peptide Variants and Polynucleotides Encoding Same” (Adenium Biotech A/S, priority 2010, published 2016)
Where a SMILES comes first, the peptide text is derived from it. Bridges are numbered along the chain shown (N, C = ends).

Test: Determination of the protein binding (90% serum, 30 kDa filter, HPLC)
Assay type: in vitro ADME
Settings: serum
Procedure: Protein binding assays were performed as follows. The purified peptides were mixed with 90% serum and centrifuged through a 30 kDa filter. The ultra-filtrate and the non filtrated serum samples were quantified by HPLC measurements and the protein binding was subsequently calculated.
`CC(C)[C@@H]1NC(=O)CNC(=O)[C@H](CC(N)=O)NC(=O)[C@H](CCCNC(=N)N)NC(=O)[C@H](Cc2ccc(O)cc2)NC(=O)[C@H](C)NC(=O)[C@@H]2CSSC[C@H](NC(=O)[C@H](C)NC(=O)[C@H](CCCNC(=N)N)NC1=O)C(=O)N[C@@H](Cc1ccc(O)cc1)C(=O)N[C@@H](CCCNC(=N)N)C(=O)N[C@@H](CCCNC(=N)N)C(=O)N[C@H](C(=O)N[C@@H](CC(N)=O)C(=O)O)CSSC[C@H](NC(=O)[C@H](Cc1ccccc1)NC(=O)CN)C(=O)N[C@@H](Cc1c[nH]c3ccccc13)C(=O)N[C@@H](CCCNC(=N)N)C(=O)N[C@@H](C)C(=O)N2` [compound 418] (H-GFCWRACAYRNGVRACYRRCN-OH; disulfide 3-20, 7-16 (inferred); N-terminus and C-terminus assumed) showed a fraction unbound of 0.08.
`CC(C)[C@@H]1NC(=O)[C@H](CCCNC(=N)N)NC(=O)[C@H](Cc2c[nH]c3ccccc23)NC(=O)[C@@H](NC(=O)[C@H](Cc2ccccc2)NC(=O)CN)CSSC[C@@H](C(=O)N[C@@H](CC(N)=O)C(=O)O)NC(=O)[C@H](CCCNC(=N)N)NC(=O)[C@H](CCCNC(=N)N)NC(=O)[C@H](Cc2ccc(O)cc2)NC(=O)[C@@H]2CSSC[C@H](NC1=O)C(=O)N[C@@H](C)C(=O)N[C@@H](Cc1ccc(O)cc1)C(=O)N[C@@H](CO)C(=O)N[C@@H](CC(N)=O)C(=O)NCC(=O)N[C@@H](CCCCN)C(=O)N[C@@H](CCCNC(=N)N)C(=O)N[C@@H](C(C)C)C(=O)N2` [compound 425] (H-GFCWRVCAYSNGKRVCYRRCN-OH; disulfide 3-20, 7-16 (inferred); N-terminus and C-terminus assumed) showed a fraction unbound of 0.31.
For `CC(C)C[C@@H]1NC(=O)CNC(=O)[C@H](CC(N)=O)NC(=O)[C@H](CCCNC(=N)N)NC(=O)[C@H](CO)NC(=O)[C@H](C)NC(=O)[C@@H]2CSSC[C@H](NC(=O)[C@H](C(C)C)NC(=O)[C@H](CCCNC(=N)N)NC1=O)C(=O)N[C@@H](Cc1ccc(O)cc1)C(=O)N[C@@H](CCCNC(=N)N)C(=O)N[C@@H](CCCNC(=N)N)C(=O)N[C@H](C(=O)N[C@@H](CC(N)=O)C(=O)O)CSSC[C@H](NC(=O)[C@H](Cc1ccccc1)NC(=O)CN)C(=O)N[C@@H](Cc1c[nH]c3ccccc13)C(=O)N[C@@H](CCCNC(=N)N)C(=O)N[C@@H](C(C)C)C(=O)N2` [compound 435] (H-GFCWRVCASRNGLRVCYRRCN-OH; disulfide 3-20, 7-16 (inferred); N-terminus and C-terminus assumed), the fraction unbound was 0.15.
Work on `CC(C)[C@@H]1NC(=O)[C@H](CCCNC(=N)N)NC(=O)[C@H](CCCCN)NC(=O)CNC(=O)[C@H](CC(N)=O)NC(=O)[C@H](CO)NC(=O)[C@H](Cc2ccc(O)cc2)NC(=O)[C@H](Cc2c[nH]cn2)NC(=O)[C@@H]2CSSC[C@H](NC1=O)C(=O)N[C@@H](Cc1ccc(O)cc1)C(=O)N[C@@H](CCCNC(=N)N)C(=O)N[C@@H](CCCNC(=N)N)C(=O)N[C@H](C(=O)N[C@@H](CC(N)=O)C(=O)O)CSSC[C@H](NC(=O)[C@H](Cc1ccccc1)NC(=O)CN)C(=O)N[C@@H](Cc1c[nH]c3ccccc13)C(=O)N[C@@H](CCCNC(=N)N)C(=O)N[C@@H](C(C)C)C(=O)N2` [compound 439] (H-GFCWRVCHYSNGKRVCYRRCN-OH; disulfide 3-20, 7-16 (inferred); N-terminus and C-terminus assumed) yielded a fraction unbound of 0.08.
`CC(C)C[C@@H]1NC(=O)CNC(=O)[C@H](CC(N)=O)NC(=O)[C@H](CCCNC(=N)N)NC(=O)[C@H](CCCCN)NC(=O)[C@H](C)NC(=O)[C@@H]2CSSC[C@H](NC(=O)[C@H](C(C)C)NC(=O)[C@H](CCCNC(=N)N)NC1=O)C(=O)N[C@@H](Cc1ccc(O)cc1)C(=O)N[C@@H](CCCNC(=N)N)C(=O)N[C@@H](CCCNC(=N)N)C(=O)N[C@H](C(=O)N[C@@H](CC(N)=O)C(=O)O)CSSC[C@H](NC(=O)[C@H](Cc1ccccc1)NC(=O)CN)C(=O)N[C@@H](Cc1c[nH]c3ccccc13)C(=O)N[C@@H](Cc1ccc(O)cc1)C(=O)N[C@@H](C)C(=O)N2` [compound 450] (H-GFCWYACAKRNGLRVCYRRCN-OH; disulfide 3-20, 7-16 (inferred); N-terminus and C-terminus assumed) showed a fraction unbound of 0.02.
In the case of `CC(C)C[C@@H]1NC(=O)CNC(=O)[C@H](CC(N)=O)NC(=O)[C@H](CCCNC(=N)N)NC(=O)[C@H](CCCNC(=N)N)NC(=O)[C@H](C)NC(=O)[C@@H]2CSSC[C@H](NC(=O)[C@H](CO)NC(=O)[C@H](CCCNC(=N)N)NC1=O)C(=O)N[C@@H](Cc1ccc(O)cc1)C(=O)N[C@@H](CCCNC(=N)N)C(=O)N[C@@H](CCCNC(=N)N)C(=O)N[C@H](C(=O)N[C@@H](CC(N)=O)C(=O)O)CSSC[C@H](NC(=O)[C@H](Cc1ccccc1)NC(=O)CN)C(=O)N[C@@H](Cc1c[nH]c3ccccc13)C(=O)N[C@@H](Cc1ccc(O)cc1)C(=O)N[C@@H](C(C)C)C(=O)N2` [compound 453] (H-GFCWYVCARRNGLRSCYRRCN-OH; disulfide 3-20, 7-16 (inferred); N-terminus and C-terminus assumed), the fraction unbound is reported as 0.08.
Work on `CC(C)[C@@H]1NC(=O)[C@@H]2CSSC[C@H](NC(=O)[C@H](CCCCN)NC(=O)[C@H](CCCNC(=N)N)NC(=O)[C@H](C)NC(=O)CNC(=O)[C@H](CC(N)=O)NC(=O)[C@H](CCCNC(=N)N)NC(=O)[C@H](CCCCN)NC1=O)C(=O)N[C@@H](Cc1c[nH]cn1)C(=O)N[C@@H](CCCNC(=N)N)C(=O)N[C@@H](CCCNC(=N)N)C(=O)N[C@H](C(=O)N[C@@H](CC(N)=O)C(=O)O)CSSC[C@H](NC(=O)[C@H](Cc1ccccc1)NC(=O)CN)C(=O)N[C@@H](Cc1c[nH]c3ccccc13)C(=O)N[C@@H](Cc1ccc(O)cc1)C(=O)N[C@@H](C(C)C)C(=O)N2` [compound 454] (H-GFCWYVCVKRNGARKCHRRCN-OH; disulfide 3-20, 7-16 (inferred); N-terminus and C-terminus assumed) yielded a fraction unbound of 0.1.
`CC(C)[C@@H]1NC(=O)[C@@H]2CSSC[C@H](NC(=O)[C@H](C)NC(=O)[C@H](CCCNC(=N)N)NC(=O)[C@H](CCCCN)NC(=O)CNC(=O)[C@H](CC(N)=O)NC(=O)[C@H](CCCCN)NC(=O)[C@H](Cc3ccc(O)cc3)NC1=O)C(=O)N[C@@H](Cc1ccc(O)cc1)C(=O)N[C@@H](CCCNC(=N)N)C(=O)N[C@@H](CCCNC(=N)N)C(=O)N[C@H](C(=O)N[C@@H](CC(N)=O)C(=O)O)CSSC[C@H](NC(=O)[C@H](Cc1ccccc1)NC(=O)CN)C(=O)NCC(=O)N[C@@H](CCCNC(=N)N)C(=O)N[C@@H](C(C)C)C(=O)N2` [compound 493] (H-GFCGRVCVYKNGKRACYRRCN-OH; disulfide 3-20, 7-16 (inferred); N-terminus and C-terminus assumed) gave a fraction unbound of 0.23.
Work on `CC(C)[C@@H]1NC(=O)[C@H](CCCCN)NC(=O)[C@H](Cc2c[nH]c3ccccc23)NC(=O)[C@@H](NC(=O)[C@H](Cc2ccccc2)NC(=O)CN)CSSC[C@@H](C(=O)N[C@@H](CC(N)=O)C(=O)O)NC(=O)[C@H](CCCNC(=N)N)NC(=O)[C@H](CCCNC(=N)N)NC(=O)[C@H](Cc2ccc(O)cc2)NC(=O)[C@@H]2CSSC[C@H](NC1=O)C(=O)N[C@@H](C)C(=O)N[C@@H](CCCNC(=N)N)C(=O)N[C@@H](CCCNC(=N)N)C(=O)N[C@@H](CC(N)=O)C(=O)NCC(=O)N[C@@H](C)C(=O)N[C@@H](CCCNC(=N)N)C(=O)N[C@@H](CO)C(=O)N2` [compound 504] (H-GFCWKVCARRNGARSCYRRCN-OH; disulfide 3-20, 7-16 (inferred); N-terminus and C-terminus assumed) yielded a fraction unbound of 0.05.
For `CC(C)[C@@H]1NC(=O)[C@@H]2CSSC[C@H](NC(=O)[C@H](CO)NC(=O)[C@H](CCCNC(=N)N)NC(=O)[C@H](CCCCN)NC(=O)CNC(=O)[C@H](CC(N)=O)NC(=O)[C@H](CO)NC(=O)[C@H](Cc3ccc(O)cc3)NC1=O)C(=O)N[C@@H](Cc1c[nH]cn1)C(=O)N[C@@H](CCCNC(=N)N)C(=O)N[C@@H](CCCNC(=N)N)C(=O)N[C@H](C(=O)N[C@@H](CC(N)=O)C(=O)O)CSSC[C@H](NC(=O)[C@H](Cc1ccccc1)NC(=O)CN)C(=O)N[C@@H](Cc1c[nH]c3ccccc13)C(=O)N[C@@H](CCCNC(=N)N)C(=O)N[C@@H](C(C)C)C(=O)N2` [compound 509] (H-GFCWRVCVYSNGKRSCHRRCN-OH; disulfide 3-20, 7-16 (inferred); N-terminus and C-terminus assumed), the fraction unbound was 0.13.
`CC(C)[C@@H]1NC(=O)[C@H](CCCNC(=N)N)NC(=O)[C@H](Cc2c[nH]c3ccccc23)NC(=O)[C@@H](NC(=O)[C@H](Cc2ccccc2)NC(=O)CN)CSSC[C@@H](C(=O)N[C@@H](CC(N)=O)C(=O)O)NC(=O)[C@H](CCCNC(=N)N)NC(=O)[C@H](CCCNC(=N)N)NC(=O)[C@H](Cc2ccc(O)cc2)NC(=O)[C@@H]2CSSC[C@H](NC1=O)C(=O)N[C@@H](C)C(=O)N[C@@H](Cc1ccc(O)cc1)C(=O)N[C@@H](CCCCN)C(=O)N[C@@H](CC(N)=O)C(=O)NCC(=O)N[C@@H](CCCCN)C(=O)N[C@@H](CCCNC(=N)N)C(=O)N[C@@H](CO)C(=O)N2` [compound 523] (H-GFCWRVCAYKNGKRSCYRRCN-OH; disulfide 3-20, 7-16 (inferred); N-terminus and C-terminus assumed) gave a fraction unbound of 0.1.
